We go through 14 compounds from PubChem BioAssay (NCI).

The structures appear in SMILES notation.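 Step 1: Grow cells in 96-well plates. Step 2: Expose to compound for 48 hours at 5 concentrations. Step 3: Interpolate endpoints linearly; if unreached, use highest concentration. Abbreviation: GI50, concentration required for 50% inhibition of growth. At the TGI there is no net growth.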

Some test systems named below: M14 melanoma; UO-31 renal; NCI-H522 lung; OVCAR-4 ovarian; K-562 leukemia; SR leukemia; OVCAR-8 ovarian; HT29 colon; MALME-3M melanoma; NCI/ADR-RES ovarian.
Common to all, as to assay: growth of human tumour cells (NCI), 48 h

As for `Cc1ccc(C)c2c(N=Nc3ccccc3[N+](=O)[O-])c(O)[nH]c12`, the TGI in the assay on M14 melanoma, with UO-31 renal, in the assay with NCI-H522 lung, in the assay on OVCAR-4 ovarian, in the assay with K-562 leukemia and in the assay with SR leukemia was more than 100 µM in each case.
In the case of `O=C(CC1C(=O)Nc2ccccc2S1(=O)=O)Nc1cccc(Cl)c1` (centres undefined), the TGI in the assay with OVCAR-8 ovarian worked out at 33.1 µM; in the assay with M14 melanoma, 42.1 µM; in the assay on UO-31 renal it was 32.9 µM; in the assay on NCI-H522 lung, 31.7 µM; with HT29 colon, 32.3 µM; in the assay on OVCAR-4 ovarian, 36.6 µM. The TGI with K-562 leukemia was determined as 38.4 µM; in the assay with SR leukemia, 40.7 µM; with MALME-3M melanoma, 63.7 µM.
As to `Cc1cc(NS(=O)(=O)c2ccc(Nc3c4ccccc4nc4c(C(=O)Nc5ccc(S(=O)(=O)N=C(N)N)cc5)ccc(Cl)c34)cc2)no1`, the TGI with OVCAR-8 ovarian was 38.5 µM; with M14 melanoma, more than 100 µM; in the assay on UO-31 renal it was more than 100 µM; with NCI-H522 lung, 33.2 µM; in the assay on HT29 colon, more than 100 µM; in the assay with OVCAR-4 ovarian, 85.6 µM. Also, the TGI in the assay with K-562 leukemia was more than 100 µM; in the assay with SR leukemia it was 61 µM; in the assay with MALME-3M melanoma it was more than 100 µM.
Consider `COc1cc2ccc(CC(N)=O)cc2cc1OC`, for which the TGI in the assay on OVCAR-8 ovarian, in the assay on M14 melanoma, in the assay with UO-31 renal, in the assay with NCI-H522 lung, with HT29 colon and in the assay with OVCAR-4 ovarian was more than 100 µM in each case. For the same compound, the TGI in the assay on K-562 leukemia and in the assay with MALME-3M melanoma was more than 100 µM each time.
Regarding `Cc1cnc(SCCN2CCN(C)CC2)nc1-c1cc2ccccc2s1`, the TGI in the assay on OVCAR-8 ovarian is 25.8 µM; in the assay with M14 melanoma, 27.4 µM; with UO-31 renal, 20.8 µM; with NCI-H522 lung, 29.6 µM; in the assay with HT29 colon, 18.7 µM; in the assay with OVCAR-4 ovarian, 34.1 µM. Also, the TGI in the assay on SR leukemia is 8.46 µM; in the assay on MALME-3M melanoma, 31.6 µM.
Turning to `CN1C(=O)C(=CN(C)c2ccccc2)C(=O)N(C)C1=O`, the TGI with OVCAR-8 ovarian, in the assay with M14 melanoma, in the assay on UO-31 renal, in the assay with OVCAR-4 ovarian, in the assay on K-562 leukemia and in the assay on SR leukemia was more than 100 µM throughout. In the assay with MALME-3M melanoma, the TGI was more than 100 µM.
On to `CCCCCCCCCCCCCCNCC(OCC)OCC`, for which the TGI in the assay with OVCAR-8 ovarian was found to be 40.4 µM; in the assay on M14 melanoma, 27.5 µM; in the assay on UO-31 renal it was 22.9 µM; with NCI-H522 lung it was 19.9 µM; in the assay with HT29 colon, 11.4 µM; in the assay with OVCAR-4 ovarian, 28.6 µM. The TGI in the assay with MALME-3M melanoma worked out at 32 µM.
In the case of `O=C1CCC2(c3ccccc3)Nc3ccc(Cl)cc3N12` (centres undefined), the TGI in the assay on OVCAR-8 ovarian, in the assay on M14 melanoma, in the assay on UO-31 renal, in the assay with NCI-H522 lung, with HT29 colon and in the assay with OVCAR-4 ovarian was more than 100 µM each time. The TGI in the assay with K-562 leukemia and with MALME-3M melanoma was more than 100 µM in each case.
For `O=C1c2c(c3c4ccccc4[nH]c3c3[nH]c4ccccc4c23)C(=O)N1Cc1ccccc1`, the TGI in the assay with OVCAR-8 ovarian was determined as 13.8 µM; in the assay with M14 melanoma, 10.9 µM; in the assay on UO-31 renal it was 6.69 µM; with NCI-H522 lung, 4.72 µM; with HT29 colon it was 14.5 µM; with OVCAR-4 ovarian, 10.5 µM. The TGI is 14.2 µM in the assay on K-562 leukemia and 11.9 µM in the assay with MALME-3M melanoma.
For `CC12CC(Sc3ccccc3N1)c1ccccc1O2` (centres undefined), the TGI came to 33.3 µM with OVCAR-8 ovarian; 37.6 µM with M14 melanoma; 27.4 µM in the assay with UO-31 renal; 35 µM in the assay on HT29 colon; 31.2 µM with OVCAR-4 ovarian; 40.2 µM in the assay with K-562 leukemia. For the same compound, the TGI was found to be 58 µM in the assay with SR leukemia and 30.1 µM in the assay on MALME-3M melanoma.
With `CC(=O)NC1=C(Sc2ccc(Cl)cc2)C(=O)c2ccccc2C1=O`, the TGI with OVCAR-8 ovarian is 6.77 µM; in the assay with UO-31 renal, 4.13 µM; in the assay with NCI-H522 lung, 1.18 µM; in the assay with HT29 colon it was 25.6 µM; with OVCAR-4 ovarian it was 3.34 µM; with K-562 leukemia, 5.41 µM. For the same compound, the TGI in the assay with MALME-3M melanoma came out at 8 µM; in the assay on NCI/ADR-RES ovarian it was 6.31 µM.
For the compound `CCN(CC)c1ccc(/C=C/C=C(/C#N)C(N)=S)cc1`, the GI50 with OVCAR-8 ovarian is 8.07 µM; in the assay with M14 melanoma, 2.53 µM; in the assay on UO-31 renal, 4.39 µM; in the assay with NCI-H522 lung it was 8.54 µM; with HT29 colon it was 2.84 µM; in the assay with OVCAR-4 ovarian it was 6.27 µM. The values for the GI50 in the assay with K-562 leukemia, with MALME-3M melanoma and in the assay with NCI/ADR-RES ovarian were 2.83 µM, 32 µM and 3.85 µM, respectively. The TGI was more than 100 µM in the assay with OVCAR-8 ovarian; 9.33 µM in the assay on M14 melanoma; more than 100 µM in the assay with UO-31 renal; 47.8 µM in the assay on NCI-H522 lung; 23.9 µM in the assay on HT29 colon; more than 100 µM in the assay on OVCAR-4 ovarian. Besides, the results for the TGI in the assay on K-562 leukemia, in the assay on MALME-3M melanoma and with NCI/ADR-RES ovarian were 18.9 µM, more than 100 µM and more than 100 µM, respectively.
As to `C#CC(=O)OCC#CCOC(=O)C#C`, the TGI in the assay with OVCAR-8 ovarian turned out to be 96 µM; in the assay on M14 melanoma, 49.5 µM; in the assay with UO-31 renal, 23.1 µM; in the assay with NCI-H522 lung it was 9.81 µM; with HT29 colon, 42.7 µM; in the assay on MALME-3M melanoma it was 38 µM. In the assay on NCI/ADR-RES ovarian, this compound returned a TGI of 76.5 µM.
Take `CC/C=C\C[C@H](O)C/C=C1/C(=O)C=C[C@@H]1C/C=C\CCCC(=O)NC`: the GI50 with OVCAR-8 ovarian was 2.4 µM; in the assay with M14 melanoma, 1.76 µM; in the assay with UO-31 renal, 1.52 µM; in the assay on NCI-H522 lung it was 1.54 µM; in the assay on HT29 colon, 1.52 µM; with OVCAR-4 ovarian, 3.04 µM. Further, the GI50 was 1.7 µM in the assay with K-562 leukemia, 1.94 µM with MALME-3M melanoma and 2.5 µM in the assay on NCI/ADR-RES ovarian. Besides, the TGI in the assay on OVCAR-8 ovarian was found to be 10.2 µM; in the assay with M14 melanoma, 4.75 µM; in the assay on UO-31 renal, 3.35 µM; in the assay with NCI-H522 lung, 3.77 µM; in the assay with HT29 colon, 3.25 µM; in the assay on OVCAR-4 ovarian, 19.5 µM. Further, the TGI with K-562 leukemia is more than 100 µM; with MALME-3M melanoma it was 4.65 µM; with NCI/ADR-RES ovarian, 10.5 µM.
